The record followed here is patent US20250011318A1 (ARCUS BIOSCIENCES, INC., priority 2023, published 2025).

One assay has as its system Jurkat cells. The assay is described as follows: IL-2 secretion assay in CD3/CD28-activated Jurkat cells (AlphaLISA). The following applies: Homo sapiens, CD3/CD28 T Cell Activator, 24 h, IL-2 AlphaLISA. In kind it is cell-based, human. Put shortly:
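IL-2 release quantified by AlphaLISA in supernatants after 24 h CD3/CD28 activation at 37° C. Compounds, 10 μM to 300 pM final in 1:2 steps, were added to 50,000 Jurkat cells/well 1 h before activation; 4-parameter fit gave EC50.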
(Bead proximity is the source of the signal in Alpha formats.)

The next assay concerns the target T1, Cbl-b (Homo sapiens, UniProt Q13191).
T1 construct: biotin (biotinylated)
The assay is described as follows: Cbl-b probe displacement HTRF binding assay. The following applies: 0.4 nM biotinylated Cbl-b, 150 nM BODIPY probe. Put shortly: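 Probe-displacement HTRF in Hepes/NaCl/Triton/TCEP/BSA buffer at room temperature: compound dilutions (to 10 μM) incubated 60 min with 0.4 nM biotin-Cbl-b, 150 nM BODIPY probe added for 15 min, Tb-streptavidin read. Signal normalised to DMSO and no-protein controls; IC50 from four-parameter curve.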
Background: Time-resolved FRET reads energy transfer from a long-lived donor to a nearby acceptor.

Where only a bound is given, the exact number is not on record here.

T1 sequence (Q13191 whole entry, species assumed): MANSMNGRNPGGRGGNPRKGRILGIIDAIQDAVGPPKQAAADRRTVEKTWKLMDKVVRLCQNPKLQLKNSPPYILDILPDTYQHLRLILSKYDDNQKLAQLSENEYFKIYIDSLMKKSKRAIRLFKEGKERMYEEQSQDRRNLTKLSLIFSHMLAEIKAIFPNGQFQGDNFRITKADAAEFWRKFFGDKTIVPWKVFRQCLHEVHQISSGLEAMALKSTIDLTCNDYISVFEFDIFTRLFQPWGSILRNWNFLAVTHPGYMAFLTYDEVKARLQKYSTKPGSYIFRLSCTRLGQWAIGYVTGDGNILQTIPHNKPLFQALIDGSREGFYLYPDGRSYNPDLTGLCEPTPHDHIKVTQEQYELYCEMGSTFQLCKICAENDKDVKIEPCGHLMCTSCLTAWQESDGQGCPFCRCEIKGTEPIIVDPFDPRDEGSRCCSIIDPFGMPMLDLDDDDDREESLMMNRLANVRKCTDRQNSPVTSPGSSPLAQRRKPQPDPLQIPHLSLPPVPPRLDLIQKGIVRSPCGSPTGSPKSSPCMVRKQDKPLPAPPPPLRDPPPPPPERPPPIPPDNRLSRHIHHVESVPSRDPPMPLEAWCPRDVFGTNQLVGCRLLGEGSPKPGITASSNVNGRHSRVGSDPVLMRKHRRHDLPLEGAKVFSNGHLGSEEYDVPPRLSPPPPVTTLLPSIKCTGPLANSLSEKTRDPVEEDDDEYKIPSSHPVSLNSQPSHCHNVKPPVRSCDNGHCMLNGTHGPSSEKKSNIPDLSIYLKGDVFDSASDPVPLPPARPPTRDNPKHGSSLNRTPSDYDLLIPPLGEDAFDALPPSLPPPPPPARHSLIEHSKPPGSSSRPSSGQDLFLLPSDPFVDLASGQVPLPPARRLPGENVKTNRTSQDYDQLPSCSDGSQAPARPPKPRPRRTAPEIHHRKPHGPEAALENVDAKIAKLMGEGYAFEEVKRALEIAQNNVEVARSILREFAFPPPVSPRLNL

Consider `C[C@@H]1CN(Cc2cc3c(C#N)cn(-c4cc(-c5ccc(F)cc5-c5nncn5C)cc(C5CC5)n4)c(=O)c3[nH]2)CCO1` [Example 85, 6-[6-cyclopropyl-4-[4-fluoro-2-(4-methyl-1,2,4-triazol-3-yl)phenyl]pyridin-2-yl]-2-[[(2R)-2-methylmorpholin-4-yl]methyl]-7-oxo-1H-pyrrolo[2,3-c]pyridine-4-carbonitrile], for which the EC50 – broadly, the concentration needed to bring the measured effect to its halfway point – with Jurkat cells is below 0.1 µM. For the same molecule, at Cbl-b, the IC50 (in general, the concentration needed to halve the response being measured) was below 0.1 µM.
Molecule `Cn1ccnc1-c1cc(F)ccc1-c1cc(C2CC2)nc(-n2cc(C#N)c3cc(CNCCCF)[nH]c3c2=O)c1` [Example 86, 6-{6-cyclopropyl-4-[4-fluoro-2-(1-methyl-2-imidazolyl)phenyl]-2-pyridyl}-2-[(3-fluoropropylamino)methyl]-7-oxo-1,6-dihydro-1,6-diaza-4-indenecarbonitrile] gave an EC50 with Jurkat cells below 0.1 µM. At Cbl-b, this molecule had an IC50 below 0.1 µM.
As for `Cn1ccnc1-c1cc(F)ccc1-c1cc(C2CC2)nc(-n2cc(C#N)c3cc(CN4CC5(C4)CS(=O)(=O)C5)[nH]c3c2=O)c1` [Example 87, 6-{6-cyclopropyl-4-[4-fluoro-2-(1-methyl-2-imidazolyl)phenyl]-2-pyridyl}-2-{(2,2-dioxo-2λ^6-thia-6-aza-6-spiro[3.3]heptyl)methyl}-7-oxo-1,6-dihydro-1,6-diaza-4-indenecarbonitrile], the EC50 with Jurkat cells is below 0.1 µM. At Cbl-b, the IC50 is below 0.1 µM.
Molecule `C[C@H]1CN(Cc2cc3c(C#N)cn(-c4cc(-c5c(F)cc(F)cc5-c5nccn5C)cc(C5CC5)n4)c(=O)c3[nH]2)CCCO1` [Example 88, 2-{1[(S)-2-methyl-1,4-oxazepan-4-yl]methyl}-6-{6-cyclopropyl-4-[4,6-difluoro-2-(1-methyl-2-imidazolyl)phenyl]-2-pyridyl}-7-oxo-1,6-dihydro-1,6-diaza-4-indenecarbonitrile] showed an EC50 in the assay on Jurkat cells below 0.1 µM. Further, the IC50 on Cbl-b was below 0.1 µM.
`C[C@H]1CCCCN1Cc1cc2c(C#N)cn(-c3cc(-c4c(F)cc(F)cc4-c4nccn4C)cc(C4CC4)n3)c(=O)c2[nH]1` [Example 89, 2-{[(S)-2-methyl-1-piperidyl]methyl}-6-{6-cyclopropyl-4-[4,6-difluoro-2-(1-methyl-2-imidazolyl)phenyl]-2-pyridyl}-7-oxo-1,6-dihydro-1,6-diaza-4-indenecarbonitrile] showed an EC50 in the assay with Jurkat cells below 0.1 µM. The molecule further displayed a half-inhibitory concentration (IC50) at Cbl-b below 0.1 µM.
As for `Cn1cnnc1-c1cc(F)ccc1-c1cc(C2CC2)nc(-n2cc(C#N)c3cc(C(O)C4CCOC4)[nH]c3c2=O)c1` (stereo not shown) [Example 90, 6-{6-cyclopropyl-4-[4-fluoro-2-(4-methyl-4H-1,2,4-triazol-3-yl)phenyl]-2-pyridyl}-2-[hydroxy(tetrahydro-3-furyl)methyl]-7-oxo-1,6-dihydro-1,6-diaza-4-indenecarbonitrile], the EC50 with Jurkat cells was 0.1 to 1 µM. The same molecule had an IC50 at Cbl-b below 0.1 µM.
In the same order, the values of `Cn1cnnc1-c1cc(F)ccc1-c1cc(C2CC2)nc(-n2cc(C#N)c3cc(C(O)C4CCCC4)[nH]c3c2=O)c1` (stereo not shown) [Example 91, 2-(cyclopentylhydroxymethyl)-6-{6-cyclopropyl-4-[4-fluoro-2-(4-methyl-4H-1,2,4-triazol-3-yl)phenyl]-2-pyridyl}-7-oxo-1,6-dihydro-1,6-diaza-4-indenecarbonitrile] are below 0.1 µM and below 0.1 µM.
Turning to `Cn1cnnc1-c1cc(F)ccc1-c1cc(C2CC2)nc(-n2cc(C#N)c3cc(C(O)c4cccnc4)[nH]c3c2=O)c1` (stereo not shown) [Example 92, 6-{6-Cyclopropyl-4-[4-fluoro-2-(4-methyl-4H-1,2,4-triazol-3-yl)phenyl]-2-pyridyl}-2-[hydroxy(3-pyridyl)methyl]-7-oxo-1,6-dihydro-1,6-diaza-4-indenecarbonitrile], the concentration for a half-maximal effect (EC50) with Jurkat cells is below 0.1 µM. Moreover, the IC50 on Cbl-b is below 0.1 µM.
`Cc1cccc(C(O)c2cc3c(C#N)cn(-c4cc(-c5ccc(F)cc5-c5nncn5C)cc(C5CC5)n4)c(=O)c3[nH]2)n1` (stereo not shown) [Example 93, 6-{6-cyclopropyl-4-[4-fluoro-2-(4-methyl-4H-1,2,4-triazol-3-yl)phenyl]-2-pyridyl}-2-[hydroxy(6-methyl-2-pyridyl)methyl]-7-oxo-1,6-dihydro-1,6-diaza-4-indenecarbonitrile]: the EC50 in the assay on Jurkat cells is below 0.1 µM. The IC50 on Cbl-b was below 0.1 µM.
Take `Cn1cnnc1-c1cc(F)ccc1-c1cc(C2CC2)nc(-n2cc(C#N)c3cc(C(N)c4cccnc4)[nH]c3c2=O)c1` (stereo not shown) [Example 94, 2-[Amino(3-pyridyl)methyl]-6-{6-cyclopropyl-4-[4-fluoro-2-(4-methyl-4H-1,2,4-triazol-3-yl)phenyl]-2-pyridyl}-7-oxo-1,6-dihydro-1,6-diaza-4-indenecarbonitrile]: in the assay with Jurkat cells, the EC50 is 0.1 to 1 µM. This molecule also registered an IC50 on Cbl-b below 0.1 µM.
In the same order, the values of `Cc1cccc(C(N)c2cc3c(C#N)cn(-c4cc(-c5ccc(F)cc5-c5nncn5C)cc(C5CC5)n4)c(=O)c3[nH]2)n1` (stereo not shown) [Example 95, 2-[amino(6-methyl-2-pyridyl)methyl]-6-{6-cyclopropyl-4-[4-fluoro-2-(4-methyl-4H-1,2,4-triazol-3-yl)phenyl]-2-pyridyl}-7-oxo-1,6-dihydro-1,6-diaza-4-indenecarbonitrile] are 0.1 to 1 µM and below 0.1 µM.
In the same order, the values of `Cn1cnnc1-c1cc(F)ccc1-c1cc(C2CC2)nc(-n2cc(C#N)c3cc(CC4(O)CCCCC4)[nH]c3c2=O)c1` [Example 96, 6-{6-cyclopropyl-4-[4-fluoro-2-(4-methyl-4H-1,2,4-triazol-3-yl)phenyl]-2-pyridyl}-2-[(1-hydroxycyclohexyl)methyl]-7-oxo-1,6-dihydro-1,6-diaza-4-indenecarbonitrile] are below 0.1 µM and below 0.1 µM.
For the molecule `Cn1cnnc1-c1cc(F)ccc1-c1cc(C2CC2)nc(-n2cc(C#N)c3cc([C@@H](N)C(F)(F)F)[nH]c3c2=O)c1` [Example 97, 2-[(R)-1-amino-2,2,2-trifluoroethyl]-6-{6-cyclopropyl-4-[4-fluoro-2-(4-methyl-4H-1,2,4-triazol-3-yl)phenyl]-2-pyridyl}-7-oxo-1,6-dihydro-1,6-diaza-4-indenecarbonitrile], the EC50 with Jurkat cells fell in the range of 0.1 to 1 µM. At Cbl-b, this molecule registered an IC50 below 0.1 µM.
In the same order, the values of `Cn1cnnc1-c1cc(F)ccc1-c1cc(C2CC2)nc(-n2cc(C#N)c3cc([C@H](N)C(F)(F)F)[nH]c3c2=O)c1` [Example 98, 2-[(S)-1-amino-2,2,2-trifluoroethyl]-6-{6-cyclopropyl-4-[4-fluoro-2-(4-methyl-4H-1,2,4-triazol-3-yl)phenyl]-2-pyridyl}-7-oxo-1,6-dihydro-1,6-diaza-4-indenecarbonitrile] are below 0.1 µM and below 0.1 µM.
In the same order, the values of `C[C@H]1CCCN(Cc2cc3c(S(C)(=O)=O)cn(-c4cc(-c5ccc(C#N)cc5-c5nccn5C)cc(C5CC5)n4)c(=O)c3[nH]2)C1` [Example 99, 4-[2-(2-{[(S)-3-methyl-1-piperidyl]methyl}-4-mesyl-7-oxo-1,6-dihydro-1,6-diaza-6-indenyl)-6-cyclopropyl-4-pyridyl]-3-(1-methyl-2-imidazolyl)benzonitrile] are below 0.1 µM and below 0.1 µM.
In the same order, the values of `CC1(NCc2cc3c(C4CC4)cn(-c4cc(-c5ccc(F)cc5-n5nccc5C(F)(F)F)cc(C5CC5)n4)c(=O)c3[nH]2)CCC1` [Example 103, 4-cyclopropyl-6-[6-cyclopropyl-4-[4-fluoro-2-[5-(trifluoromethyl)pyrazol-1-yl]phenyl]pyridin-2-yl]-2-[[(1-methylcyclobutyl)amino]methyl]-1H-pyrrolo[2,3-c]pyridin-7-one] are 0.1 to 1 µM and below 0.1 µM.
Molecule `COCCNCc1cc2ncn(-c3cc(-c4ccc(F)cc4-n4nccc4C(F)(F)F)cc(C4CC4)n3)c(=O)c2[nH]1` [Example 104, 3-[6-cyclopropyl-4-[4-fluoro-2-[5-(trifluoromethyl)pyrazol-1-yl]phenyl]pyridin-2-yl]-6-[(2-methoxyethylamino)methyl]-5H-pyrrolo[3,2-d]pyrimidin-4-one] registered an EC50 with Jurkat cells of 0.1 to 1 µM. The IC50 on Cbl-b was below 0.1 µM.
In the same order, the values of `CC1(NCc2cc3ncn(-c4cc(-c5ccc(F)cc5-n5nccc5C(F)(F)F)cc(C5CC5)n4)c(=O)c3[nH]2)CCC1` [Example 105, 3-[6-cyclopropyl-4-[4-fluoro-2-[5-(trifluoromethyl)pyrazol-1-yl]phenyl]pyridin-2-yl]-6-[[(1-methylcyclobutyl)amino]methyl]-5H-pyrrolo[3,2-d]pyrimidin-4-one] are 0.1 to 1 µM and below 0.1 µM.
In the same order, the values of `Cc1ccnnc1-c1cc(F)ccc1-c1cc(C2CC2)nc(-n2cnc3cc(CN4CCO[C@H](C)C4)[nH]c3c2=O)c1` [Example 106, 3-[6-cyclopropyl-4-[4-fluoro-2-(4-methylpyridazin-3-yl)phenyl]pyridin-2-yl]-6-[[(2R)-2-methylmorpholin-4-yl]methyl]-5H-pyrrolo[3,2-d]pyrimidin-4-one] are below 0.1 µM and below 0.1 µM.
In the same order, the values of `COCCNCc1cc2ncn(-c3cc(-c4ccc(F)cc4-c4nc(C#N)cn4C)cc(C4CC4)n3)c(=O)c2[nH]1` [Example 107, 2-[2-[2-cyclopropyl-6-[6-[(2-methoxyethylamino)methyl]-4-oxo-5H-pyrrolo[3,2-d]pyrimidin-3-yl]pyridin-4-yl]-5-fluorophenyl]-1-methylimidazole-4-carbonitrile] are below 0.1 µM and below 0.1 µM.
